Assay results reported in US6664058B2, “Base analogues” (Amersham Biosciences UK Limited, priority 2000, dated 2003).

System: exonuclease free Klenow fragment DNA polymerase I (EFK)
Conditions: 40 μM test compound alone or with 4 μM dNTPαS; 33P 15 mer primer / 24 mer template; one unit EFK; 37° C., 3 minutes
Protocol: Primer Extension Assays to Study the Incorporation of Triphosphate 5 by DNA Polymerases
A primer extension assay was used to evaluate the triphosphate 5 as a substrate for exonuclease free Klenow fragment DNA polymerase I (EFK). The assay used a ^33P 5′ end labelled 15 mer primer hybridised to a 24 mer template. The sequences of the primer and template are:
One picomole ^33P labelled primer was hybridised to 2 picomoles of template in ×2 Klenow buffer (100 mM Tris-HCl pH 7.5, 10 mM MgCl2., 10 mM 2-mercaptoethanol) To this was added either 4 μM dNTPαS or 40 μM (test compound 5c) or a mixture of 4 μM dNTPαS and 40 μM (test compound). One unit EFK and 20 mU inorganic pyrophosphatase were used per reaction. Primer alone, primer plus template plus enzyme controls were also carried out. The reactions were incubated at 37° C. for 3 minutes. Reactions were then stopped by the addition of formamide/EDTA stop solution. Reaction products were separated on a 20% polyacrylamide 7M urea gel and the product fragments sized by comparison with the labelled primer and the products of extensions in the presence of 4 μM dNTPαS after exposure to Kodak Biomax autoradiography film.

## Cc1cc2c(nn1)NC(=O)N([C@H]1C[C@H](O)[C@@H](COP(=O)(O)OP(=O)(O)OP(=O)(O)O)O1)C2 [compound 5, 6-(β-D-2-Deoxyribofuranosyl)-5-hydro-3-methyl-8H-pyrimido[4,5-c][1,2]pyridazin-7-one-5′-triphosphate]
  natural nucleotide in place of which the test compound is incorporated: incorporated in place of dTTP
